Series [1] in a line: Low molecular weight drug (FA) slow release from PEGDM:TEGDM sheets. As to conditions: PEGDM:TEGDM 100:0 to 0:100, capsules in PBS. Format: physicochemical. On the procedure: Sheets having changed mixing ratios of PEGDM (Mn 750) and TEGDM (Mw 286.3) were prepared to evaluate their low molecular weight drug slow-releasing capability. The low molecular weight drug used sodium fluorescein (FA, a fluorescent contrast agent clinically used) as a model. PEG sheets were prepared in the 6 patterns of PEGDM:TEGDM=100:0, 95:5, 90:10, 80:20, 50:50, and 0:100; FA was capsulated; and the capsules were immersed in PBS to measure the fluorescence intensity at regular intervals. […] The slow-releasing capability was irrespective of the presence of collagen particles.

Series [2] in a line: Implantation of capsule on the sclera of rabbit's eye (fluorescence of hydatoid, fundus camera, tissue). The format is in vivo. As to conditions: 3 days after implantation. On the procedure: A capsule (the collagen particle concentration of its porous PEG sheet: 500 mg/ml) packed with a PEG pellet of FA was implanted on the sclera of the eye of rabbits. One eye of each rabbit was used as a non-implantation control. The conjunctiva was incised 5 mm and the capsule was implanted therethrough into 2 to 15 mm of the corneal limbus. The capsule was fixed by suture. The conjunctiva was finally sutured to terminate the implantation. The hydatoid (100 μl) was collected every other week and the fluorescence intensity thereof was measured using a fluorescence plate reader. Using a fluorescence camera, the fluorochrome in the device implanted on the sclera and the distribution of the pigment slowly released were photographed. […] In FIG. 22, the fluorescences of the cell nucleus (blue fluorescence) and the model drug (green fluorescence) are observed. In FIG. 22, the mark * represents the position in which the PEG capsule was present. […] When the drug passes through RP, the drug is fed to RE. Because RP has a high barrier function, the pigment stops here and is concentrated.

With `O=C([O-])c1ccccc1-c1c2ccc(=O)cc-2oc2cc([O-])ccc12.[Na+].[Na+]` [FA, sodium fluorescein], the “FA slow-releasing capability versus PEGDM:TEGDM ratio” value in series [1] was “increased mixing ratio of TEGDM suppressed the FA slow-releasing capability”. For the same compound, the tissue fluorescence distribution result in series [2] was “strong fluorescence was observed in the sclera (SC) and the subretina (RP)”.

(Values after patent US9005651B2, “Sustained drug delivery system” (Tohoku University, priority 2009, dated 2015).)
